From US20190298717A1 (BOARD OF REGENTS, THE UNIVERSITY OF TEXAS SYSTEM, priority 2016, published 2019)
Entries after “also recorded” stand apart in the source; their conditions may differ. Read-outs that look alike come from different tables or passages of the source.

Assays:
C. elegans [1] = test system: C. elegans
Description: C. elegans strains and maintenance. Animals were grown and maintained using standard C. elegans conditions at 20° C. on NGM plates and were fed E. coli strain HB101. N2 worms were used as wild-type and the following mutants and transgenic strains were used from Caenorhabditis Genetics Center (CGC, University of Minnesota): EU1 skn-1(zu67) (IV)/nT1[unc-?(n754); let-?], EU31 skn-1(zu135))/nT1[unc-?(n754); let-?], CL2166 dvIs19 [gst-4p::GFP::NLS], CL691 dvIs19 [gst-4p::GFP::NLS], skn-1(zu67)/nT [unc-?(n754) let-?], LG333 skn-1(zu135)/nT1[qIs51]; ldIs7[skn-1b/c::GFP], LG348 skn-1(zu135)/nT1[qIs51]; geIs9 [gpa-4p::skn-1b::GFP+rol-6(su1006)], LG357 skn-1(zu135)/nT1[qIs51]; geIs10 [ges-1p(long)::skn-1c::GFP+rol-6(su1006)], and LD1 ldIs7 [skn-1b/c::GFP+rol-6(su1006)].
Lifespan analysis. All lifespan assays were performed at 20° C. according to standard protocols described elsewhere. […] Worms were transferred to fresh plates every day after reaching adulthood, and every two days after reaching 10 days of age. Prodding test as described above was used to count the number of dead worms. Survival curve was plotted using Prism 7 and the significance of the curves calculated by Log-rank (Mantel-Cox) test.
RNA Interference. Synchronized L1 larvae were placed on NGM plates containing 1 mM IPTG and fed HT115 bacterial strain containing scramble or skn-1 RNAi plasmids. All the experiments were done at 20° C.

Nrf2 = test system: Nrf2
Description: The inventors quantified Nrf2 protein in treated cells as a first step towards validating the prediction of the Nrf2 pathway.
Nrf2 phosphorylation on serine 40 is a regulatory modification required for Nrf2 translocation to nucleus and downstream protein activation.
Western Blot Analysis. Protein expression was determined by Western blot analysis. Equal amount of protein from each sample was run in Tris-glycine SDS PAGE gel, followed by transferring to PVDF membrane. After blocking the membrane with 5% milk for 1 hour at room temperature, the membrane was incubated further for 2 hours with antibodies specific for target proteins: Nrf2, pNrf2(S40) from Novus (Littleton, Colo.); Keap1, HO-1, NQO1, GCLc, GCLm and lamin B1 from Cell Signaling (Danvers, Mass.); GAPDH from Santa Cruz (Dallas, Tex.); β-Actin from Thermo Fisher (Waltham, Mass.). The membrane was subsequently incubated with species-specific HRP-conjugated secondary antibody followed by incubation with chemiluminescence substrate and imaging. The band intensity of each of the target proteins was quantified using ImageQuant software (GE Healthcare, Sweden). Western blot analysis on worm lystaes was done similarly. […] Equal amounts of protein were run on the gel and SKN-1 protein level was detected using anti-GFP antibody.
Cell Fractionation. Nuclear and cytoplasmic fractions were separated using the protocol and NE-PER Nuclear and Cytoplasmic Extraction Reagents provided by […]. Briefly, the cells were harvested and washed with ice-cold PBS buffer. The cells were resuspended in ice-cold CER-I buffer and incubated on ice for 10 minutes, followed by addition of CER-II buffer and incubation for one more minute on ice. The lysate was centrifuged at 16,000 g for 5 minutes. The supernatant was the cytoplasmic fraction. The pellet obtained was lysed in ice-cold NER buffer to obtain nuclear protein fractions.

C. elegans [2] = assay: Rotenone stress test in worms; format: in vivo
Source text: The inventors again used rotenone to elicit PD-like changes.
Rotenone stress test. […] After 3 days young adult worms were transferred to fresh NGM plates either preloaded with rotenone alone or rotenone plus any of the abovementioned compounds. Every worm was subjected to prodding test with a worm pick every day. A worm was scored as dead when not responding to three repeated proddings. Survival curve was plotted using Prism 7.

SH-SY5Y cells [3] = details: 72 hours
Description: Mitochondrial mass was measured by staining the cells with Mito tracker deep red followed by flow cytometric analysis. […] DNA copy number of mitochondria was calculated by amplification of ND5 or m-RNR, as mitochondrial genes, relative to LPL as a nucleus specific DNA sequence. Relative expression values were normalized to untreated cells.
Several parameters directly linked to intact mitochondria itself, namely mitochondrial mass, mtDNA copy number (as representatives of mitochondrial biogenesis), mitochondrial membrane potential (reporter of mitochondrial function) and ATP level as a signature of energetics (FIGS. 11A to 11E) were measured. […] Isoniazid (20 μM) and resveratrol (20 μM) were used as negative and positive controls respectively). Mitochondrial mass was also evaluated in parallel by measuring the relative amount of mitochondrial to nuclear DNA. Two different set of primers (ND5 and m-RNR) were used to amplify mt-DNA in qPCR reactions (FIG. 11B).
(§1) The mitochondrial membrane potential was measured as an indicator of cellular energetics and ATP content.

SH-SY5Y cells [4] = details: 0, 10, 20 μM, 3 days
Description: Cells were stained by TMRE to tag active mitochondria. Florescence signal was quantified by Flow Jo software. […] ATP levels were measured by bioluminescent detection of luciferase activity. All data are presented normalized to cell number.
as §1

[5] = test system: glutathione S-transferase-4 (GST-4)
Description: The inventors measured the expression of glutathione S-transferase-4 (GST-4), a downstream target of SKN-1, in a transgenic strain (CL2166) expressing GFP driven by the GST-4 promoter (Kahn et al., 2008).
Imaging. To measure the GFP intensity, synchronized populations of worms were anesthetized and arranged on agarose pad. The intestinal SKN-1::GFP was assayed by confocal microscopy (X40) (Nikon A1R, Nikon Instruments Inc., Melville, N.Y., USA) (FIG. 5A). The quantification of intestinal SKN-1::GFP was performed with ImageJ (FIG. 5B). The ASI SKN-1::GFP was assayed by a Zeiss Axiolmager M2 microscope equipped with a Hamamatsu Flash 4.0 Scientific c-mos camera and Zen2 software (X40) (FIG. 5D). The quantification of ASI SKN-1::GFP was performed with ImageJ using a sliding paraboloid algorithm for reducing the background followed by edge detection. The t-test was conducted with Welsh correction since the standard deviations were not equal (FIG. 5E). The GSTp::GFP intensity was measured same as ASI SKN-1::GFP but with ×5 magnification. The GSTp::GFP quantification was done using the whole worm signal following the same protocol as intestinal SKN-1::GFP (FIG. 5G).

MEF cells = details: 10 μM, 24 and 48 hours
Description: Cells were then subjected to confocal analysis and mRFP-GFP (yellow representing autophagosome) and mRFP (red puncta representing autophagolysosomes) were recorded; scale bar, 10 gtm. […] The co-localization of mRFP with GFP signal from tfLC3 puncta was measured using ImageJ software.
To further validate the present invention autophagic flux using mRFP-GFP tandem fluorescent-tagged LC3 (tfLC3) was measured. tfLC3 protein is one of the most widely used markers for the detection of autophagosomes and autophagolysosomes, two key structures in macroautophagy (8). tfLC3 was knocked-in to monitor autophagic flux in MEF cells based on different pH stabilities of GFP and mRFP (9). In autophagosome environment both mRFP and GFP tags of tfLC3 can fluoresce so autophagosome appear as yellow puncta (green GFP+red mRFP). […] Rapamycin was used as a positive control.

GSK3β and Tau = assay: p-GSK3β (S9) and p-Tau (S396) Western blot; details: 10 μM, 24 hours
Description: Densitometry values were normalized against actin. […] The levels of p-Tau and total Tau were measured by Western blot analysis. […] Densitometry values were normalized to actin using Image J software. All of the western blot quantification values (shown in the right panel) are mean±SD from two technical replicates (n=2).
A known GSK3β inhibitor LiCl (lithium chloride) (10 mM) was used as a positive control [9]. After the treatment, cells were lysed and equal amounts of total lysate were resolved on SDS-PAGE for western blot analysis using phospho-GSK3β (S9) (phosphorylation at this residue reduces the GSK3β kinase activity) and pTau antibodies [12,13]. […] The inventors analyzed the level of Tau phosphorylation at S396 (FIG. 18C).

Description for primary cortical neurons: For each group (control, 0.5 μM Hyd, 1 μM Hyd, 2 μM Hyd and 2 μM Dimebon) 10 images from three replicates were analyzed. Total numbers of spines, stubby, thin, and mushroom were counted by NeuronStudio software for each image. The mean value and standard deviation of numbers for each group were calculated. P value was calculated with non-parametric T-test. All values are mean±SD (*p<0.05, **p<0.01).
Primary neuronal cells from cortex were visualized with td-Tomato (FIG. 21A). Cells were treated with 500 nM Aβ-42 oligomers or vehicle (Ctrl). Spine density and morphology were measured per 10 micron by confocal imaging. […] Mushroom and thins are indicated with an arrow. […] Dimebon, a known neuroprotective compound, was used as positive control in all experiments. Data were collected from three batches of cultures for all treatments and Ctrl. For spine quantification n=8-10 (for each treatment per one experiment) neurons were analyzed by Neuronstudio. Scale bar corresponds to 5 μm. Experiment was repeated three times. Values are shown as mean±SEM. (*p<0.05, **p<0.01, ***p<0.001, ****p<0.0001).
Primary neuronal cells were isolated from the cortex of mice pups on day 0 (P0) and cultured in 24 well plates covered by poly-D-lysine coated coverslips with a density of 1.0×105 for 7 days. Cells were then transfected with tdTomato plasmid and incubated for 14 additional days (4). […] Dimebon (2 μM) was used as a positive control. After 24 hours of treatment, cells were fixed and scanned with a Zeiss microscope at 100× resolution for visualizing spines on the dendrites. The images were analyzed using Neuronstudio software (5). […] Structural formation and the maturation of spines were also analyzed.

**Q.** `NNc1nncc2ccccc12` [Hydralazine] was tested. Which “Variation Compared to Control (%)” value (C. elegans [1]; EU1 skn-1(zu67), 100 μM Hyd (printed 100 IJM), FIG. 7G) did it give?
**A.** Its value is “+11.7%”.

**Q.** And the “Variation Compared to Control (%)” value (C. elegans [1]; EU31 skn-1(zu135), 100 μM Hyd (printed 100 IlM), FIG. 7G)?
**A.** The value was “+3.3%”.

**Q.** And the “Variation Compared to Control (%)” value (C. elegans [1]; LG348 (geIs9, skn-1b), 100 μM Hyd (printed 100 IJM), FIG. 7H)?
**A.** Its value is “+10.8%”.

**Q.** And the “Variation Compared to Control (%)” value (C. elegans [1]; LG357 (geIs10, skn-1c), 100 μM Hyd (printed 100 FM), FIG. 7H)?
**A.** The value was “+2.7%”.

**Q.** What about the “Variation Compared to Control (%)” value (C. elegans [1]; N2, 10 μM Hyd (printed 10 IJM), FIG. 7E) of the same molecule?
**A.** Its value is “+4.82%”.

**Q.** And the lifespan extension (C. elegans [1]; N2, 100 μM)?
**A.** Its lifespan extension is no more than 25%.

**Q.** And the “Variation Compared to Control (%)” value (C. elegans [1]; N2, 100 μM Hyd (printed 100IJM), FIG. 7E)?
**A.** The value was “+24.4%”.

**Q.** What about the “Variation Compared to Control (%)” value (C. elegans [1]; N2, 200 μM Hyd (printed 200 IlM), FIG. 7E) of the same molecule?
**A.** Its value is “+13.3%”.

**Q.** And the “Variation Compared to Control (%)” value (C. elegans [1]; N2-Scramble RNAi, 100 μM (printed 100 IJM), FIG. 7F)?
**A.** The value was “+22.2%”.

**Q.** What about the “Variation Compared to Control (%)” value (C. elegans [1]; N2-skn-1 RNAi, 100 μM, FIG. 7F) of the same molecule?
**A.** The value was −5.4%.

**Q.** What about the “pro-longevity effect in skn-1(zu135) mutant and skn-1 knockdown worms” value (C. elegans [1]; in vivo) of the same molecule?
**A.** Its value is “completely lost”.

**Q.** What about the “extension of medium and maximum lifespan” value (C. elegans [1]; worms treated with hydralazine) of the same molecule?
**A.** Its value is “at least 25%”.

**Q.** What about the “increase of phosphorylation of Nrf2 on serine 40 in the nuclear compartment” value (Nrf2; SH-SY5Y) of the same molecule?
**A.** Its value is 25%.

**Q.** And the “phosphorylation of cytosolic Nrf2” value (Nrf2; SH-SY5Y)?
**A.** The value was “no change was observed”.

**Q.** And the “increase in Nrf2 level compared to untreated cells” value (Nrf2; SH-SY5Y, 10 μM, 24 h, Western blotting)?
**A.** The value was “about 20%”.

**Q.** What about the “cytosolic Nrf2 fraction” value (Nrf2; SH-SY5Y, 10, 20 μM) of the same molecule?
**A.** Its value is “remained unchanged”.

**Q.** What about the “nuclear localization of Nrf2” value (Nrf2; SH-SY5Y, 10, 20 μM) of the same molecule?
**A.** The value was “significantly increased”.

**Q.** What about the “protection against rotenone-induced death” value (C. elegans [2]; 100 μM pretreatment, rotenone 50 μM) of the same molecule?
**A.** The value was “protected from rotenone; also recorded: significantly protected”.

**Q.** And the “protection against rotenone in skn-1(zu135) mutant compared to N2” value (C. elegans [2]; skn-1(zu135))?
**A.** Its value is “sharply decreased”.

**Q.** And the mitochondrial mass (SH-SY5Y cells [3]; 0, 10, 20 μM)?
**A.** The mitochondrial mass was “sharp increase in mitochondrial mass”.

**Q.** And the “increase in mt-DNA copy number” value (SH-SY5Y cells [3]; 20 μM)?
**A.** The value was “more than 50%”.

**Q.** And the “total ATP content” value (SH-SY5Y cells [4])?
**A.** The value was “elevated ATP level in a concentration dependent manner”.

**Q.** What about the “GST-4p::GFP signal in worms fed skn-1(RNAi) or skn-1(zu67)” value ([5]; 100 μM, 72 h) of the same molecule?
**A.** Its value is “did not increase GFP signal”.

**Q.** And the “GST-4p::GFP signal” value ([5]; strain CL2166, 48 h after treatment)?
**A.** Its value is “significant increase in the GFP signal”.

**Q.** What about the “autophagic flux (autophagosomes, autophagolysosomes)” value (MEF cells) of the same molecule?
**A.** The value was “induction of autophagic flux”.

**Q.** And the “spine density after Aβ-42 oligomers” value (primary cortical neurons; 1 μM, 500 nM Aβ-42, 24 hours)?
**A.** The value was “restoration of spine density”.

**Q.** And the “numbers of spines in a 10 micron length of dendrite” value (primary cortical neurons; 0.5, 1.0, 2.0 μM, 24 hours)?
**A.** Its value is “significantly increased”.

**Q.** What about the “stubby formation and mushroom spines” value (primary cortical neurons; 0.5, 1.0, 2.0 μM, 24 hours) of the same molecule?
**A.** The value was “increased the stubby formation and numbers of matured spines”.

**Q.** What about the “Tau phosphorylation at S396, compared to positive control LiCl” value (GSK3β and Tau) of the same molecule?
**A.** Its value is “reduces the hyper-phosphorylation of Tau even more”.
